Data from ChEMBL document CHEMBL3868598, “Synthesis, structure-activity relationship and molecular docking of 3-oxoaurones and 3-thioaurones as acetylcholinesterase and butyrylcholinesterase inhibitors” (Bioorg Med Chem, 2017).

Assays:
Acetylcholinesterase = Acetylcholinesterase (Homo sapiens, UniProt P22303); test: Inhibition of acetylcholinesterase (unknown origin) using acetylthiocholine iodide as substrate incubated for 10 mins followed by substrate addition measured after 20 mins by UV-Vis spectrophotometric analysis
Chain of Acetylcholinesterase (P22303 whole entry): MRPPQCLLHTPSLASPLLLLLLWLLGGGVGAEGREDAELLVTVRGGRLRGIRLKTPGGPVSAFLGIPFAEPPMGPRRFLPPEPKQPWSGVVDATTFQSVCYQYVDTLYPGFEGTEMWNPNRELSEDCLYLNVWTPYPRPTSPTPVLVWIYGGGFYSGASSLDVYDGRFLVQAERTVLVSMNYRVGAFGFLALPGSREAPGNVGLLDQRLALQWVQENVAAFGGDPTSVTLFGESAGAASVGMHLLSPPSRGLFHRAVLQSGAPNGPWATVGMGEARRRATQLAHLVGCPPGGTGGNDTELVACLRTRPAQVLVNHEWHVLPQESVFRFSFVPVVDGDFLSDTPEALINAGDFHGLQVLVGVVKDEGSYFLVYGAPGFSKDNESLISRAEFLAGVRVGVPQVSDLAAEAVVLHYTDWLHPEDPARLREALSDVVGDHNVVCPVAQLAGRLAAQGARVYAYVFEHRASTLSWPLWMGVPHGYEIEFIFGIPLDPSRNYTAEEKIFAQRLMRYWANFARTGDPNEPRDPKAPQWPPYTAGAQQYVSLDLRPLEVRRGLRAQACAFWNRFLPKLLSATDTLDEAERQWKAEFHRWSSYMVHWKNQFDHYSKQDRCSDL

Cholinesterase = Cholinesterase (Homo sapiens, UniProt P06276); test: Inhibition of butyrylcholinesterase (unknown origin) using butyrylthiocholine chloride as substrate incubated for 10 mins followed by substrate addition measured after 20 mins by UV-Vis spectrophotometric analysis
Chain of Cholinesterase (P06276 whole entry): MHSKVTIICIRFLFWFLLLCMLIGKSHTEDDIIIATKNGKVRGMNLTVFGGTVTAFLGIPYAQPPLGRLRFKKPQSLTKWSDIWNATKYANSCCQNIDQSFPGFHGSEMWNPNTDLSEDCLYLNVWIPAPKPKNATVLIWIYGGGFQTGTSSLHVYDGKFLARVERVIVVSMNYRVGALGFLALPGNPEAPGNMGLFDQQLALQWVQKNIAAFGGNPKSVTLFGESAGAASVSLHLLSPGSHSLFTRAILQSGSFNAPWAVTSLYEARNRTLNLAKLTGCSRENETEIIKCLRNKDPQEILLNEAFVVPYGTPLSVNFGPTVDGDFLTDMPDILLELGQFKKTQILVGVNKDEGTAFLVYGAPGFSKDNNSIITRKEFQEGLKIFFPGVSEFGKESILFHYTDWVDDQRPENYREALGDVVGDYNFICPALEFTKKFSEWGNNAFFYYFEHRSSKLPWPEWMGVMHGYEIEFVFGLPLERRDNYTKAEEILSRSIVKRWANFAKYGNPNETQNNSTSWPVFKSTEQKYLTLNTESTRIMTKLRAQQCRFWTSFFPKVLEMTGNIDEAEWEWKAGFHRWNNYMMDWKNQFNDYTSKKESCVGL

SMILES	IC50 (Acetylcholinesterase) [nM]	IC50 (Cholinesterase) [nM]
CC(C)Cc1ccc(/C=C2\Oc3ccccc3C2=O)cc1	980	1020
S=C1/C(=C/c2ccccc2)Oc2ccccc21	6390	–
Fc1ccc(/C=C2\Oc3ccccc3C2=S)cc1	–	5270
COc1ccc(/C=C2\Oc3ccccc3C2=O)cc1 [4'-METHOXY-AURONE]	1260	–
